Experimental findings from patent US9365574B2, “Soluble guanylate cyclase activators” (Merck Sharp & Dohme Corp., priority 2010, dated 2016) are described below.

The subject of the first assay is Spontaneously hypertensive rats (SHR). Briefly: Acute Efficacy in Spontaneously Hypertensive Rats (SHR), telemetry blood pressure. The class given is in vivo, rat. The note with it: single oral dose 0.1 mpk P.O. The gist of the method:
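Male SHR with aortic telemetry catheters, 14-day recovery, conscious and freely moving; single oral gavage in 10% transcutol/20% Cremophor/70% water. BP sampled 30 s every 10 min, hourly averages minus prior-day vehicle baseline; value is maximum peak SBP decrease at stated mg/kg PO dose.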
In the case of `CC1(C(=O)NC2CC2)C(=O)Nc2nc(-c3nn(CCC(F)(F)C(F)F)c4ncccc34)nc(N)c21` (stereo not shown) [Example 237, 4-amino-N-cyclopropyl-5-methyl-6-oxo-2-[1-(3,3,4,4-tetrafluorobutyl)-1H-pyrazolo[3,4-b]pyridin-3-yl]-6,7-dihydro-5H-pyrrolo[2,3-d]pyrimidine-5-carboxamide], the “Maximum peak decrease of systolic blood pressure (SBP) in SHR, Category” value (from here on “Maximum peak decrease”) is given as “B (Category B=SBP in SHRs 25-40 mmHg)”.

Staying with this assay, now noted: single oral dose 0.3 mpk P.O.
`CC1(C(=O)NC2CC2)C(=O)Nc2nc(-c3nn(CCC(F)F)c4ncccc34)nc(N)c21` (stereo not shown) [Example 238, 4-amino-N-cyclopropyl-2-[1-(3,3-difluoropropyl)-1H-pyrazolo[3,4-b]pyridin-3-yl]-5-methyl-6-oxo-6,7-dihydro-5H-pyrrolo[2,3-d]pyrimidine-5-carboxamide]: the “Maximum peak decrease” value was “B (Category B=SBP in SHRs 25-40 mmHg)”.
Turning to `Cc1ccc2c(-c3nc(N)c4c(n3)NC(=O)C4(C)C(=O)NC3CCOCC3)nn(CCC(F)(F)C(F)(F)F)c2n1` (stereo not shown) [Example 239, 4-amino-5-methyl-2-[6-methyl-1-(3,3,4,4,4-pentafluorobutyl)-1H-pyrazolo[3,4-b]pyridin-3-yl]-6-oxo-N-(tetrahydro-2H-pyran-4-yl)-6,7-dihydro-5H-pyrrolo[2,3-d]pyrimidine-5-carboxamide], the “Maximum peak decrease” value is “A (Category A=SBP in SHRs<25 mmHg)”.
Same read-out and setting: next, `Nc1nc(-c2nn(CCC(F)(F)C(F)(F)F)c3ncccc23)nc2c1C(C(=O)NC1CC1)(C1CC1)C(=O)N2` (stereo not shown) [Example 242, 4-amino-N,5-dicyclopropyl-6-oxo-2-[1-(3,3,4,4,4-pentafluorobutyl)-1H-pyrazolo(3,4-b]pyridin-3-yl]-6,7-dihydro-5H-pyrrolo[2,3-d]pyrimidine-5-carboxamide]: “B (Category B=SBP in SHRs 25-40 mmHg)”; `CC(C)C1(C(N)=O)C(=O)Nc2nc(-c3nn(CCC(F)(F)C(F)(F)F)c4ncccc34)nc(N)c21` (stereo not shown) [Example 244, 4-amino-5-(1-methylethyl)-6-oxo-2-(1-(3,3,4,4,4-pentafluorobutyl)-1H-pyrazolo[3,4-b]pyridin-3-yl]-6,7-dihydro-5H-pyrrolo[2,3-d]pyrimidine-5-carboxamide]: “C (Category C=SBP in SHRs>40 mmHg)”; `Nc1nc(-c2nn(CCC(F)(F)F)c3ncccc23)nc2c1C(C(=O)NC1CC1)(C1CC1)C(=O)N2` (stereo not shown) [Example 245, 4-amino-N,5-dicyclopropyl-6-oxo-2-[1-(3,3,3-trifluoropropyl)-1H-pyrazolo[3,4-b]pyridin-3-yl]-6,7-dihydro-5H-pyrrolo[2,3-d]pyrimidine-5-carboxamide]: “C (Category C=SBP in SHRs>40 mmHg)”.
The same measure, in the same setting: next, `Nc1nc(-c2nn(CCCC(F)(F)F)c3ncccc23)nc2c1C(C(=O)NC1CC1)(C1CC1)C(=O)N2` (stereo not shown) [Example 246, 4-amino-N,5-dicyclopropyl-6-oxo-2-[1-(4,4,4-trifluorobutyl)-1H-pyrazolo[3,4-b]pyridin-3-yl]-6,7-dihydro-5H-pyrrolo[2,3-d]pyrimidine-5-carboxamide]: “C (Category C=SBP in SHRs>40 mmHg)”; `CC1(c2nc(C(F)(F)F)no2)C(=O)Nc2nc(-c3nc(CCCC(F)(F)F)n4cc(F)ccc34)nc(N)c21` (stereo not shown) [Example 248, 4-amino-2-[6-fluoro-3-(4,4,4-trifluorobutyl)imidazo[1,5-a]pyridin-1-yl]-5-methyl-5-[3-(trifluoromethyl)-1,2,4-oxadiazol-5-yl]-5,7-dihydro-6H-pyrrolo[2,3-d]pyrimidin-6-one]: “B (Category B=SBP in SHRs 25-40 mmHg)”.
Still for that read-out and setting: under `CC1(C(=O)NC2CC2)C(=O)Nc2nc(-c3nc(CCC(F)(F)C(F)(F)F)n4ncccc34)nc(N)c21` (stereo not shown) [Example 251, 4-amino-H-cyclopropyl-5-methyl-6-oxo-2-[7-(3,3,4,4,4-pentafluorobutyl)imidazo[1,5-b]pyridazin-5-yl]-6,7-dihydro-5H-pyrrolo[2,3-d]pyrimidine-5-carboxamide] stands “C (Category C=SBP in SHRs>40 mmHg)”; under `CC1(C(=O)NC2CC2)C(=O)Nc2nc(-c3nc(CCC(F)(F)C(F)(F)F)n4cc(F)ccc34)nc(N)c21` (stereo not shown) [Example 252, 4-amino-H-cyclopropyl-2-[6-fluoro-3-(3,3,4,4,4-pentafluorobutyl)imidazo[1,5-a]pyridin-1-yl]-5-methyl-6-oxo-6,7-dihydro-5H-pyrrolo[2,3-d]pyrimidine-5-carboxamide], “B (Category B=SBP in SHRs 25-40 mmHg)”.
Turning to `CC1(C(=O)Nc2cccnc2)C(=O)Nc2nc(-c3nc(CCC(F)(F)C(F)(F)F)n4cc(F)ccc34)nc(N)c21` (stereo not shown) [Example 253, 4-amino-2-[6-fluoro-3-(3,3,4,4,4-pentafluorobutyl)imidazo[1,5-a]pyridin-1-yl]-5-methyl-6-oxo-H-pyridin-3-yl-6,7-dihydro-5H-pyrrolo[2,3-d]pyrimidine-5-carboxamide], the “Maximum peak decrease” value is reported as “A (Category A=SBP in SHRs<25 mmHg)”.
Still for that read-out and setting: next, `CC1(c2nnc(C3CC3)o2)C(=O)Nc2nc(-c3nc(CCC(F)(F)C(F)(F)F)n4ncccc34)nc(N)c21` (stereo not shown) [Example 255, 4-amino-5-(5-cyclopropyl-1,3,4-oxadiazol-2-yl)-5-methyl-2-[7-(3,3,4,4,4-pentafluorobutyl)imidazo[1,5-b]pyridazin-5-yl]-5,7-dihydro-6H-pyrrolo[2,3-d]pyrimidin-6-one]: “B (Category B=SBP in SHRs 25-40 mmHg)”; `CC1(C(=O)NC2CC2)C(=O)Nc2nc(-c3nc(CCC(F)(F)F)n4ncccc34)nc(N)c21` (stereo not shown) [Example 256, 4-amino-H-cyclopropyl-5-methyl-6-oxo-2-[7-(3,3,3-trifluoropropyl)imidazo[1,5-b]pyridazin-5-yl]-6,7-dihydro-5H-pyrrolo[2,3-d]pyrimidine-5-carboxamide]: “B (Category B=SBP in SHRs 25-40 mmHg)”; `CNc1nc(-c2nn(CCC(F)(F)C(F)(F)F)c3cc(Cl)ccc23)nc2c1C(C)(C(=O)NC1CC1)C(=O)N2` (stereo not shown) [Example 257, 2-[6-chloro-1-(3,3,4,4,4-pentafluorobutyl)-1H-indazol-3-yl)-N-cyclopropyl-5-methyl-4-(methylamino)-6-oxo-6,7-dihydro-5H-pyrrolo[2,3-d]pyrimidine-5-carboxamide]: “A (Category A=SBP in SHRs<25 mmHg)”.
As to `CNC(=O)C1(C)C(=O)Nc2nc(-c3nn(CCC(F)(F)C(F)(F)F)c4cc(Cl)ccc34)nc(NC)c21` (stereo not shown) [Example 258, 2-[6-chloro-1-(3,3,4,4,4-pentafluorobutyl)-1H-indazol-3-yl]-N,5-dimethyl-4-(methylamino)-6-oxo-6,7-dihydro-5H-pyrrolo[2,3-d]pyrimidine-5-carboxamide], the “Maximum peak decrease” value is “A (Category A=SBP in SHRs<25 mmHg)”.
Still for that read-out and setting: next, `CNC(=O)C1(C)C(=O)Nc2nc(-c3nn(CCC(F)(F)C(F)(F)F)c4ncccc34)nc(NC)c21` (stereo not shown) [Example 259, N,5-dimethyl-4-(methylamino)-6-oxo-2-[1-(3,3,4,4,4-pentafluorobutyl)-1H-pyrazolo[3,4-b]pyridin-3-yl]-6,7-dihydro-5H-pyrrolo[2,3-d]pyrimidine-5-carboxamide]: “A (Category A=SBP in SHRs<25 mmHg)”.

Still in this assay, the particulars now being: single oral dose 1 mpk P.O.
On to `CCC1(C(N)=O)C(=O)Nc2nc(-c3nn(CCC(F)(F)C(F)(F)F)c4ncccc34)nc(N)c21` (stereo not shown) [Example 241, 4-amino-5-ethyl-6-oxo-2-[1-(3,3,4,4,4-pentafluorobutyl)-1H-pyrazolo[3,4-b]pyridin-3-yl]-6,7-dihydro-5H-pyrrolo[2,3-d]pyrimidine-5-carboxamide], for which the “Maximum peak decrease” value was “B (Category B=SBP in SHRs 25-40 mmHg)”.
As to `Nc1nc(-c2nn(CCC(F)(F)C(F)(F)F)c3ncccc23)nc2c1C(C(=O)NC1CC1)(C1CCCC1)C(=O)N2` (stereo not shown) [Example 243, 4-amino-5-cyclopentyl-N-cyclopropyl-6-oxo-2-[1-(3,3,4,4,4-pentafluorobutyl)-1H-pyrazolo[3,4-b]pyridin-3-yl]-6,7-dihydro-5H-pyrrolo[2,3-d]pyrimidine-5-carboxamide], the “Maximum peak decrease” value is listed as “B (Category B=SBP in SHRs 25-40 mmHg)”.
On the same count and under the same terms, next, `NC(=O)C1(C2CC2)C(=O)Nc2nc(-c3nn(CCCC(F)(F)F)c4ncccc34)nc(N)c21` (stereo not shown) [Example 247, 4-amino-5-cyclopropyl-6-oxo-2-[1-(4,4,4-trifluorobutyl)-1H-pyrazolo[3,4-b]pyridin-3-yl]-6,7-dihydro-5H-pyrrolo[2,3-d]pyrimidine-5-carboxamide]: “C (Category C=SBP in SHRs>40 mmHg)”; `Cc1nc(C2(C)C(=O)Nc3nc(-c4nc(CCCC(F)(F)F)n5cc(Cl)ccc45)nc(N)c32)no1` (stereo not shown) [Example 249, 4-amino-2-[6-chloro-3-(4,4,4-trifluorobutyl)imidazo[1,5-a]pyridin-1-yl]-5-methyl-5-(5-methyl-1,2,4-oxadiazol-3-yl)-5,7-dihydro-6H-pyrrolo[2,3-d]pyrimidin-6-one]: “A (Category A=SBP in SHRs<25 mmHg)”.
On the same count and under the same terms, under `CC1(C(=O)NC2CC2)C(=O)Nc2nc(-c3nc(CCC(F)(F)C(F)(F)F)n4cc(Cl)ccc34)nc(N)c21` (stereo not shown) [Example 250, 4-amino-2-[6-chloro-3-(3,3,4,4,4-pentafluorobutyl)imidazo[1,5-a]pyridin-1-yl]-H-cyclopropyl-5-methyl-6-oxo-6,7-dihydro-5H-pyrrolo[2,3-d]pyrimidine-5-carboxamide] stands “C (Category C=SBP in SHRs>40 mmHg)”.
As to `CC1(C(N)=O)C(=O)Nc2nc(-c3nc(CCC(F)(F)C(F)(F)F)n4ncccc34)nc(N)c21` (stereo not shown) [Example 254, 4-amino-5-methyl-6-oxo-2-[7-(3,3,4,4,4-pentafluorobutyl)imidazo[1,5-b]pyridazin-5-yl]-6,7-dihydro-5H-pyrrolo[2,3-d]pyrimidine-5-carboxamide], the “Maximum peak decrease” value was “B (Category B=SBP in SHRs 25-40 mmHg)”.
